Measurements reported in the Deep4Chem optical property database.

Assay: photoluminescence quantum yield (fraction); solvent given as SMILES
[1] = in O=P(c1ccccc1)(c1ccccc1)c1ccccc1Oc1ccccc1P(=O)(c1ccccc1)c1ccccc1

For CCC(=O)c1ccc2cc(N(C)C)ccc2c1, the photoluminescence quantum yield (in C1CCOC1) was 0.83, the photoluminescence quantum yield (in C1COCCO1) was 0.61 and the photoluminescence quantum yield (in CC#N) was 0.94. It also gave a photoluminescence quantum yield (in CCCCCC) of 0.02, a photoluminescence quantum yield (in CCCCCCC) of 0.019 and a photoluminescence quantum yield (in CCCCCCCCO) of 0.385. For the same compound, the photoluminescence quantum yield (in CCO) was 0.95, the photoluminescence quantum yield (in CN(C)C=O) was 0.92 and the photoluminescence quantum yield (in CO) was 0.71. The photoluminescence quantum yield (in CS(C)=O) was 0.75, the photoluminescence quantum yield (in Cc1ccccc1) was 0.52 and the photoluminescence quantum yield (in ClC(Cl)Cl) was 0.88. It also gave a photoluminescence quantum yield (in ClCCl) of 0.94.

In the case of [O-][n+]1c(/C=C/c2ccccc2)nc(N2CCOCC2)c2c1CCCC2, the photoluminescence quantum yield (in ClCCl) is reported as 0.21.

Compound FC(F)(F)c1ccc(/C=C/c2nc(/C=C/c3ccc(N(c4ccccc4)c4ccccc4)cc3)cc(/C=C/c3ccc(N(c4ccccc4)c4ccccc4)cc3)n2)cc1 has a photoluminescence quantum yield (in ClCCl) of 1.

For c1ccc2c(c1)-c1ccccc1C21c2ccccc2-c2c1c1c3ccccc3ccc1c1ccccc21, the photoluminescence quantum yield (in Cc1ccccc1) was 0.61.

For CCNc1ccc2c(c1)C(C)(C)C(=O)C=C2, the photoluminescence quantum yield (in O) was 0.18.

In the case of c1ccc2c(c1)cc(-c1cc(-c3nccs3)nc(-c3nccs3)c1)c1ccccc12, the photoluminescence quantum yield (in CC#N) is reported as 0.234, the photoluminescence quantum yield (in CCCCCC) is reported as 0.142 and the photoluminescence quantum yield (in CO) is reported as 0.161. The photoluminescence quantum yield (in ClC(Cl)Cl) was 0.312.

Compound Cc1ccc(C2C3=C(CCCC3=O)Nc3c2c(=O)oc2ccccc32)cc1 (stereo unspecified) has a photoluminescence quantum yield (in CS(C)=O) of 0.83.

With CC(C)[Si](C#Cc1cc2c3c(c1)c(=C1c4ccccc4Sc4ccccc41)c1cc(C#C[Si](C(C)C)(C(C)C)C(C)C)cc4c1N3c1c(cc(C#C[Si](C(C)C)(C(C)C)C(C)C)cc1c4=C1c3ccccc3Sc3ccccc31)c2=C1c2ccccc2Sc2ccccc21)(C(C)C)C(C)C the photoluminescence quantum yield (in ClCCl) was 0.46.

Work on COc1ccc(C#Cc2c(C#Cc3ccc(OC)cc3)c(C#Cc3ccc(OC)cc3)c(C#Cc3ccc(OC)cc3)c(C#Cc3ccc(OC)cc3)c2C#Cc2ccc(OC)cc2)cc1 yielded a photoluminescence quantum yield (in ClCCl) of 0.55.

With COc1cccc2c1C(=O)c1ccccc1-2 the photoluminescence quantum yield (in CC#N) was 0.0073, the photoluminescence quantum yield (in CC(C)O) was 0.029 and the photoluminescence quantum yield (in CCCCO) was 0.023. The photoluminescence quantum yield (in CCCO) was 0.021, the photoluminescence quantum yield (in CCO) was 0.02 and the photoluminescence quantum yield (in CO) was 0.011.

Cc1ccc(C)n1-c1ccc(N(C)C)cc1 showed a photoluminescence quantum yield (in CC#N) of 0.27 and a photoluminescence quantum yield (in CCCCCC) of 0.11.

With c1cc2oc3cccc4oc5cccc6oc(c1)c2[c+](c34)c65 the photoluminescence quantum yield (in CC#N) was 0.11.

In the case of c1ccc2cc(-c3c4ccccc4c(-c4nccc5ccccc45)c4ccccc34)ccc2c1, the photoluminescence quantum yield (in ClCCl) is reported as 0.57.

Work on COCCOCCOCCOCCOc1ccc(OCCOCCOCCOCCOC)c(C=O)c1 yielded a photoluminescence quantum yield (in CC(C)(C)O) of 0.19, a photoluminescence quantum yield (in CC(C)CO) of 0.29 and a photoluminescence quantum yield (in CC(C)O) of 0.24. The photoluminescence quantum yield (in CCCCO) was 0.32, the photoluminescence quantum yield (in CCCO) was 0.27 and the photoluminescence quantum yield (in CCO) was 0.25. For the same compound, the photoluminescence quantum yield (in CN(C)C=O) was 0.02, the photoluminescence quantum yield (in CNC=O) was 0.1 and the photoluminescence quantum yield (in CO) was 0.22. For the same compound, the photoluminescence quantum yield (in NC=O) was 0.43 and the photoluminescence quantum yield (in O) was 0.11.

With C(=C\c1ccc(/C=C/c2ccc(N(c3ccccc3)c3ccccc3)cc2)cc1)/c1ccc(/C=C/c2ccc(N(c3ccccc3)c3ccccc3)cc2)cc1 the photoluminescence quantum yield (in ClCCl) was 0.84.

Nc1cc2ccc3cccc4ccc(c1)c2c34 gave a photoluminescence quantum yield (in CC#N) of 0.14, a photoluminescence quantum yield (in CCCCOCCCC) of 0.19 and a photoluminescence quantum yield (in CO) of 0.17.

Work on O=Cc1ccc(C#CC(C#Cc2ccc(C=O)s2)=Cc2ccc(C=C(C#Cc3ccc(C=O)s3)C#Cc3ccc(C=O)s3)cc2)s1 yielded a photoluminescence quantum yield (in ClC(Cl)Cl) of 0.08.

For C[N+]1=c2ccc3c(c2C(C)(C)CC1)Oc1cc2c(cc1C=3c1ccccc1C(=O)O)C(c1ccccc1C(=O)O)=c1ccc3c(c1O2)C(C)(C)CC[N+]=3C, the photoluminescence quantum yield (in ClC(Cl)Cl) was 0.5.

For CCN1C(=O)C(C2C(=O)c3c4ccccc4cc4cc5ccccc5c2c34)SC1=S (stereo unspecified), the photoluminescence quantum yield (in C1CCOC1) was 0.258, the photoluminescence quantum yield (in CC#N) was 0.135 and the photoluminescence quantum yield (in CCCCCC) was 0.33. For the same compound, the photoluminescence quantum yield (in Cc1ccccc1) was 0.339 and the photoluminescence quantum yield (in ClCCl) was 0.229.

With CCOC(=O)C1=CN(c2ccccc2)C=CC1c1ccccc1 (stereo unspecified) the photoluminescence quantum yield (in C1CCOC1) was 0.12 and the photoluminescence quantum yield (in CO) was 0.05.

With Cc1ccc(-c2ccc(/C=C/c3cccn3C)cn2)nc1 the photoluminescence quantum yield (in C1COCCO1) was 0.25, the photoluminescence quantum yield (in CC#N) was 0.087 and the photoluminescence quantum yield (in CCCCCC) was 0.36. The photoluminescence quantum yield (in CCO) was 0.2, the photoluminescence quantum yield (in CN(C)C=O) was 0.19 and the photoluminescence quantum yield (in CO) was 0.18. For the same compound, the photoluminescence quantum yield (in CS(C)=O) was 0.19, the photoluminescence quantum yield (in Cc1ccccc1) was 0.25 and the photoluminescence quantum yield (in ClC(Cl)Cl) was 0.25. For the same compound, the photoluminescence quantum yield (in c1ccccc1) was 0.25.

Compound c1ccc(-n2c(-c3cccc4ccccc34)nc3c4ccccc4c4ccccc4c32)cc1 has a photoluminescence quantum yield (in Cc1ccccc1) of 0.79.

Compound O=C(O)c1ccccc1Nc1cccc(C(F)(F)F)c1 has a photoluminescence quantum yield (in C1CCCCC1) of 0.016, a photoluminescence quantum yield (in C1CCOC1) of 0.016 and a photoluminescence quantum yield (in C1COCCO1) of 0.026. For the same compound, the photoluminescence quantum yield (in CC#N) was 0.004, the photoluminescence quantum yield (in CCOC(C)=O) was 0.014 and the photoluminescence quantum yield (in CN(C)C=O) was 0.006. The photoluminescence quantum yield (in CO) was 0.001 and the photoluminescence quantum yield (in ClC(Cl)Cl) was 0.022.

Work on c1ccc2c(c1)Oc1ccccc1N2c1ccc(-c2nnc(-c3ccc(N4c5ccccc5Oc5ccccc54)cc3)o2)cc1 yielded a photoluminescence quantum yield (in Cc1ccccc1) of 0.431 and a photoluminescence quantum yield [1] of 0.87.

Compound CCCCCCOc1cc(N(CC)CC)ccc1/C=C/C(=C(C#N)C#N)c1ccc2c(c1)c1ccccc1n2CC has a photoluminescence quantum yield (in ClCCl) of 0.121.

For CCn1ncc2c3c(C#N)c4c5ccccc5n(CC)c4nc3ccc21, the photoluminescence quantum yield (in CCOC(C)=O) was 0.6.

CCC(C)(C)c1ccc(-c2ccc(-c3ccc(C(C)(C)CC)cc3)cc2)cc1 showed a photoluminescence quantum yield (in C1COCCO1) of 0.85.

CCCCC(CC)CN1C(=O)C2=C(c3ccc(-c4ccc(C5=C6C(C)=CC(C)=[N+]6[B-](F)(F)n6c(C)cc(C)c65)cc4)s3)N(CC(CC)CCCC)C(=O)C2=C1c1cccs1 (stereo unspecified) gave a photoluminescence quantum yield (in Cc1ccccc1) of 0.57.

Work on CN(C)c1ccc(C2=Cc3ccc4ccccc4[n+]3[B-](F)(F)O2)cc1 yielded a photoluminescence quantum yield (in C1CCOC1) of 0.517, a photoluminescence quantum yield (in C1COCCO1) of 0.735 and a photoluminescence quantum yield (in CC1CCCCC1) of 0.862. For the same compound, the photoluminescence quantum yield (in CC#N) was 0.296, the photoluminescence quantum yield (in CCOC(C)=O) was 0.614 and the photoluminescence quantum yield (in CCOCC) was 0.747. For the same compound, the photoluminescence quantum yield (in CN(C)C=O) was 0.187, the photoluminescence quantum yield (in CO) was 0.308 and the photoluminescence quantum yield (in COC(C)=O) was 0.374. It also gave a photoluminescence quantum yield (in ClC(Cl)Cl) of 0.86.

Work on COC(=O)C(NC(=O)OC(C)(C)C)c1ccc2oc(-c3cc(OC)ccc3OC)nc2c1 (stereo unspecified) yielded a photoluminescence quantum yield (in CC1CCCCC1) of 0.51, a photoluminescence quantum yield (in CC#N) of 0.35 and a photoluminescence quantum yield (in CO) of 0.37.

For CN(C)c1ccc2c(c1)[Si](C)(C)C1=CC(=[N+](C)C)C=CC1=C2C#Cc1ccccc1, the photoluminescence quantum yield (in CO) was 0.07 and the photoluminescence quantum yield (in O) was 0.004.

COC(=O)c1ccc(/C=C2\C=C(c3ccc(OC)c(OC)c3)NC2=O)cc1 gave a photoluminescence quantum yield (in C1COCCO1) of 0.363.

CCCCCCc1cc2c3c(c1)c(=C1c4ccccc4Sc4ccccc41)c1cc(CCCCCC)cc4c1N3c1c(cc(CCCCCC)cc1c4=C1c3ccccc3Sc3ccccc31)c2=C1c2ccccc2Sc2ccccc21 gave a photoluminescence quantum yield (in ClCCl) of 0.57.

Work on Nc1n[n+]([O-])c2ccccc2[n+]1[O-] yielded a photoluminescence quantum yield (in CC#N) of 0.006 and a photoluminescence quantum yield (in O) of 0.0033.

For CC(C)Nc1cc2c(cc1F)c(=O)c1cc(F)c(NC(C)C)cc1n2C(C)C, the photoluminescence quantum yield (in CCO) was 0.32.

COCCC1=Cc2nc1ccc1[nH]c(cc1CCOC)c1nc(c(N)cc3[nH]c2cc3CCOC)C(CCOC)=C1 showed a photoluminescence quantum yield (in Cc1ccccc1) of 0.04.

In the case of CCN(CC)c1ccc(C=Cc2nc3nc4ccccc4nc3s2)c(OC)c1, the photoluminescence quantum yield (in CCO) is reported as 0.32.

In the case of COc1cc2sc3nc(-c4ccccc4OC)sc3c2cc1OC, the photoluminescence quantum yield (in CS(C)=O) is reported as 0.76.

CC(C)(C)c1ccc2c(c1)c1cc(C(C)(C)C)ccc1n2-c1ccc(C#Cc2ccc3c4ccc(C#Cc5ccc(C=C(C#N)C#N)cc5)cc4n(-c4ccc(C(F)(F)F)cc4)c3c2)cc1 showed a photoluminescence quantum yield (in ClCCl) of 0.12.

COc1ccc(-c2cc3c(ccc4sc5ccc6sccc6c5c43)s2)cc1 gave a photoluminescence quantum yield (in ClCCl) of 0.12.

Cc1cc(C(F)(F)F)nc2c1ccc1nc(-c3ccc(F)c(F)c3)cn12 gave a photoluminescence quantum yield (in CC#N) of 0.84, a photoluminescence quantum yield (in CCCCOC(C)=O) of 0.78 and a photoluminescence quantum yield (in CO) of 0.83. It also gave a photoluminescence quantum yield (in ClC(Cl)Cl) of 0.96.

For c1ccc(-c2nc(-c3ccccc3)nc(-c3ccc(-n4c5ccccc5c5cc6c(cc54)C4(c5ccccc5-c5ccccc54)c4ccccc4-6)cc3)n2)cc1, the photoluminescence quantum yield [1] was 0.856.

With COc1ccc(C2=C3C=c4c(oc5cc6c(cc45)[C@H]4CC[C@]5(C)C(=O)CC[C@H]5[C@@H]4CC6)=[N+]3[B-](F)(F)n3c2cc2c4cc5c(cc4oc23)CC[C@@H]2[C@@H]5CC[C@]3(C)C(=O)CC[C@@H]23)cc1 the photoluminescence quantum yield (in CCOC(C)=O) was 0.61, the photoluminescence quantum yield (in CCOCC) was 0.88 and the photoluminescence quantum yield (in CO) was 0.52.

Work on C(#Cc1ccc(-n2c3ccccc3c3ccccc32)cc1)c1ccccc1 yielded a photoluminescence quantum yield (in ClCCl) of 0.72.

Compound CCCC1=Cc2nc1ccc1[nH]c(cc1CCC)c1nc(c(O)cc3[nH]c2cc3CCC)C(CCC)=C1 has a photoluminescence quantum yield (in Cc1ccccc1) of 0.15.

Compound C[n+]1ccc(/C=C/c2ccc(N(c3ccccc3)c3ccc(/C=C/c4cc[n+](C)cc4)cc3)cc2)cc1 has a photoluminescence quantum yield (in ClCCl) of 0.64, a photoluminescence quantum yield (in O) of 0.08 and a photoluminescence quantum yield (in OCC(O)CO) of 0.11.

For FC(F)(F)c1ccc(B2c3ccccc3Nc3ccccc32)c(C(F)(F)F)c1, the photoluminescence quantum yield (in ClCCl) was 0.9.

With COCCC1=Cc2nc1ccc1[nH]c(cc1CCOC)c1nc(c(OC)cc3[nH]c2cc3CCOC)C(CCOC)=C1 the photoluminescence quantum yield (in Cc1ccccc1) was 0.18.

In the case of CC(C)(C)c1cc(-c2ccc(-c3cccs3)s2)c2c(c1)c1cc(C(C)(C)C)cc(-c3ccc(-c4cccs4)s3)c1n2-c1ccc(-c2cccs2)s1, the photoluminescence quantum yield (in ClCCl) is reported as 0.092.

Work on CN(C)c1ccc2c(-c3cc(C(=O)[O-])ccc3C(=O)[O-])c3ccc(=[N+](C)C)cc-3oc2c1 yielded a photoluminescence quantum yield (in CCO) of 0.59 and a photoluminescence quantum yield (in O) of 0.45.

In the case of CN(C)c1ccc(C#Cc2ccc(C#Cc3ccc(C#Cc4ccccc4C#N)cc3C#N)cc2C#N)cc1, the photoluminescence quantum yield (in C1CCOC1) is reported as 0.084, the photoluminescence quantum yield (in CC#N) is reported as 0.002 and the photoluminescence quantum yield (in CN(C)C=O) is reported as 0.002. The photoluminescence quantum yield (in ClC(Cl)Cl) was 0.999 and the photoluminescence quantum yield (in c1ccccc1) was 0.999.
